Strand notation (5' to 3'): a small letter for the sugar, then the base; units joined by * are phosphorothioate-linked, units joined directly phosphodiester-linked; [ ] holds rarer units or linkages, { } end groups; capitals alone tell only the bases. k = constrained ethyl (cEt); [5mC] = 5-methylcytosine; d = 2'-deoxy (DNA)
Tested on: Yap1 mRNA
Experiment: Antisense inhibition of human Yap1 in A-431 cells by cEt gapmers, single dose (Example 2, RTS4814)
Type: cell-based
Settings: A-431 cells, 5,000 cells per well, free uptake, 2,000 nM modified oligonucleotide, approx. 48 hours, RTS4814, normalized to RIBOGREEN; Table 4; asterisk (*) = targets amplicon region of primer probe set
Method in brief: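 Single-dose knockdown screen of 3-10-3 cEt phosphorothioate gapmers at 2,000 nM added by free uptake to A-431 cells. After roughly 48 h, RNA was isolated and Yap1 transcript measured by RT-qPCR, with results given as % UTC.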

Point of comparison: “716406 (kA*k[5mC]*kT*d[5mC]*dT*d[5mC]*dA*dT*d[5mC]*dT*d[5mC]*dG*dA*kG*kA*kG; antisense) [Compound 716406]”, “YAP1 (% UTC)” value 117 % UTC. Against it:
- 716559 (k[5mC]*k[5mC]*kT*dA*dA*d[5mC]*dA*dT*dA*dT*dG*dA*dG*k[5mC]*kA*kT; antisense) [Compound 716559] — lower, 62 % UTC

Same assay, conditions: Table 5; A-431 cells, 5,000 cells per well, free uptake, 2,000 nM modified oligonucleotide, approx. 48 hours; RTS4814; normalized to RIBOGREEN; Yap1 mRNA relative to untreated control cells

Point of comparison: “716416 (kA*kA*kG*dG*dA*dT*dG*dT*d[5mC]*dA*dG*dA*dA*k[5mC]*kT*k[5mC]; antisense) [Compound 716416]”, “YAP1 (% UTC)” value 45 % UTC. Against it:
- 716533 (antisense k[5mC]*kA*kA*dT*dT*d[5mC]*dA*dA*dG*dA*dA*dT*dA*k[5mC]*k[5mC]*k[5mC]) [Compound 716533] — higher, 64 % UTC
- 716368 (kG*kT*k[5mC]*dG*dG*dG*d[5mC]*dA*dG*d[5mC]*dT*dT*d[5mC]*k[5mC]*kG*kG; antisense) [Compound 716368] — higher, 86 % UTC

Same assay, conditions: Table 6; A-431 cells, 5,000 cells per well, free uptake, 2,000 nM modified oligonucleotide, approx. 48 hours; RTS4814; normalized to RIBOGREEN; Yap1 mRNA relative to untreated control cells

Point of comparison: “716381 (kT*kG*kT*d[5mC]*dT*dG*dA*dT*d[5mC]*dG*dA*dT*dG*kT*kG*kA; antisense) [Compound 716381]”, “YAP1 (% UTC)” value 35 % UTC. Against it:
- 716375 (kG*kA*kG*dA*d[5mC]*dT*dA*d[5mC]*dT*d[5mC]*d[5mC]*dA*dG*kT*kG*kG; antisense) [Compound 716375] — higher, 63 % UTC
- 716369 (k[5mC]*kG*kG*d[5mC]*dG*dG*d[5mC]*dT*dT*dG*dA*dA*dG*kA*kA*kG; antisense) [Compound 716369] — higher, 94 % UTC
- 716372 (kA*kT*kG*dA*dG*d[5mC]*dT*d[5mC]*dG*dA*dA*d[5mC]*dA*kT*kG*k[5mC]; antisense) [Compound 716372] — higher, 61 % UTC
- 716390 (kT*k[5mC]*kT*d[5mC]*dT*dG*dG*dT*dT*d[5mC]*dA*dT*dG*kG*k[5mC]*kA; antisense) [Compound 716390] — higher, 66 % UTC

Same assay, conditions: Table 18; A-431 cells, 5,000 cells per well, free uptake, 2,000 nM modified oligonucleotide, approx. 48 hours; RTS4814; normalized to RIBOGREEN; Yap1 mRNA as percent of untreated control

Point of comparison: “1074276 (antisense k[5mC]*k[5mC]*kA*dA*dG*dA*dG*dG*dT*dG*dG*dT*d[5mC]*kT*kT*kG) [Compound 1074276]”, “YAP1 (% UTC)” value 87 % UTC. Against it:
- 1076548 (antisense k[5mC]*kA*k[5mC]*d[5mC]*dA*dA*d[5mC]*d[5mC]*dT*dG*dT*dT*dA*kA*kG*kG) [Compound 1076548] — higher, 106 % UTC
- 1075780 (kT*kA*kT*dA*dA*dT*dA*dA*dT*d[5mC]*d[5mC]*dA*dG*kA*kA*k[5mC]; antisense) [Compound 1075780] — higher, 98 % UTC

Same assay, conditions: Table 19; A-431 cells, 5,000 cells per well, free uptake, 2,000 nM modified oligonucleotide, approx. 48 hours; RTS4814; normalized to RIBOGREEN; Yap1 mRNA as percent of untreated control

Point of comparison: “1074597 (antisense kA*kG*kT*dA*dT*dT*d[5mC]*dT*dA*dT*d[5mC]*d[5mC]*dA*kG*kG*kG) [Compound 1074597]”, “YAP1 (% UTC)” value 5 % UTC. Against it:
- 1075717 (k[5mC]*kA*kT*dA*dA*dA*dT*dT*dT*d[5mC]*dA*dG*d[5mC]*k[5mC]*kG*kA; antisense) [Compound 1075717] — higher, 10 % UTC
- 1075845 (kG*kT*kG*dG*dA*dA*dA*dA*dG*dT*dA*dT*dG*kA*kT*k[5mC]; antisense) [Compound 1075845] — higher, 19 % UTC

Same assay, conditions: Table 20; Yap1 mRNA, percent of untreated control; 3-10-3 cEt gapmers targeting SEQ ID NO.: 1 and 2

Point of comparison: “1075270 (antisense k[5mC]*kT*kT*dT*dA*dT*dT*dA*dA*d[5mC]*d[5mC]*dT*dG*kG*kA*kG) [Compound 1075270]”, “YAP1 (% UTC)” value 18 % UTC. Against it:
- 1076006 (kT*kT*kT*dA*dA*dA*d[5mC]*d[5mC]*dT*dG*dA*dG*dA*k[5mC]*kT*k[5mC]; antisense) [Compound 1076006] — higher, 41 % UTC
- 1075334 (kT*kT*kA*dA*dT*dA*dA*dT*d[5mC]*dT*dA*d[5mC]*d[5mC]*kA*kG*kT; antisense) [Compound 1075334] — higher, 60 % UTC
- 1074982 (antisense kA*k[5mC]*k[5mC]*dT*dT*dT*dT*dA*dT*dT*dG*d[5mC]*d[5mC]*kA*kG*kT) [Compound 1074982] — lower, 13 % UTC
- 1076134 (kG*kA*kT*dT*dA*dG*dA*dG*dT*dT*dG*dG*dG*k[5mC]*kA*kT; antisense) [Compound 1076134] — lower, 10 % UTC

Same assay, conditions: Table 21; Yap1 mRNA, percent of untreated control; 3-10-3 cEt gapmers targeting SEQ ID NO.: 1 and 2

For “1074823 (kG*kA*kG*d[5mC]*dA*d[5mC]*dT*d[5mC]*dA*dT*dT*dT*d[5mC]*kT*k[5mC]*kA; antisense) [Compound 1074823]”, the “YAP1 (% UTC)” value was 77 % UTC.

Same assay, conditions: Table 22; Yap1 mRNA as percent of untreated control; 3-10-3 cEt gapmers; single dose

Point of comparison: “1074600 (antisense k[5mC]*kA*kG*d[5mC]*dT*dA*dA*d[5mC]*dT*d[5mC]*dA*dA*dA*kA*k[5mC]*k[5mC]) [Compound 1074600]”, “YAP1 (% UTC)” value 29 % UTC. Against it:
- 1075336 (kG*k[5mC]*kT*dT*dA*dA*dT*dA*dA*dT*d[5mC]*dT*dA*k[5mC]*k[5mC]*kA; antisense) [Compound 1075336] — higher, 32 % UTC
- 1076520 (antisense kA*kA*kT*dT*dA*dT*dA*dT*dG*d[5mC]*dA*dG*d[5mC]*kA*kG*k[5mC]) [Compound 1076520] — lower, 21 % UTC
- 1074664 (antisense kG*k[5mC]*kA*dT*dT*d[5mC]*dT*dA*dG*dG*dT*dA*dG*kA*kA*kT) [Compound 1074664] — higher, 49 % UTC

Same assay, conditions: Table 23; Yap1 mRNA as percent of untreated control; 3-10-3 cEt gapmers; single dose

Point of comparison: “1074217 (antisense kG*kG*kA*dT*dT*dT*dG*dG*dG*d[5mC]*dT*d[5mC]*d[5mC]*kG*kG*k[5mC]) [Compound 1074217]”, “YAP1 (% UTC)” value 74 % UTC. Against it:
- 1075849 (k[5mC]*kT*kA*dG*dA*dA*d[5mC]*dA*d[5mC]*dG*d[5mC]*dT*dG*kA*kT*kG; antisense) [Compound 1075849] — lower, 55 % UTC

Same assay, conditions: Table 24; Yap1 mRNA as percent of untreated control; 3-10-3 cEt gapmers targeting SEQ ID NO.: 1, and 2

Point of comparison: “1076394 (k[5mC]*k[5mC]*kT*dA*dA*dA*dT*dT*dA*dG*dA*d[5mC]*dT*kT*kG*kA; antisense) [Compound 1076394]”, “YAP1 (% UTC)” value 20 % UTC. Against it:
- 1075626 (k[5mC]*kA*kT*dT*dA*dG*d[5mC]*d[5mC]*dA*dA*dA*dG*d[5mC]*kT*k[5mC]*kA; antisense) [Compound 1075626] — higher, 34 % UTC
- 1075274 (antisense kA*kA*kT*dA*dA*dT*d[5mC]*d[5mC]*dA*dG*d[5mC]*d[5mC]*dT*kA*kG*kG) [Compound 1075274] — higher, 86 % UTC

Same assay, conditions: Table 25; Yap1 mRNA as percent of untreated control; 3-10-3 cEt gapmers targeting SEQ ID NO.: 1, and 2

Point of comparison: “1076299 (k[5mC]*kG*kT*dT*dA*dT*dA*dA*dA*dG*dA*d[5mC]*d[5mC]*k[5mC]*kA*kA; antisense) [Compound 1076299]”, “YAP1 (% UTC)” value 3 % UTC. Against it:
- 1075947 (k[5mC]*kT*kT*dT*dA*dT*dA*dG*dG*dA*dA*dT*dA*kG*kA*kG; antisense) [Compound 1075947] — higher, 95 % UTC

Same assay, conditions: Table 32; Yap1 mRNA, percent of untreated control; 3-10-3 cEt gapmers targeting SEQ ID NO.: 1, and 2

Point of comparison: “1074866 (kA*kA*k[5mC]*dA*dT*dA*dT*dG*dA*dG*d[5mC]*dA*dT*kG*k[5mC]*kT; antisense) [compound 1074866]”, “YAP1 (% UTC)” value 30 % UTC. Against it:
- 1075026 (antisense k[5mC]*kT*kT*dA*dA*dA*dA*dG*d[5mC]*d[5mC]*dA*dT*d[5mC]*kT*kA*k[5mC]) [compound 1075026] — higher, 55 % UTC
- 1076146 (kG*k[5mC]*kT*dA*dA*dA*dA*d[5mC]*dT*dT*dT*d[5mC]*dA*kT*k[5mC]*k[5mC]; antisense) [compound 1076146] — lower, 23 % UTC

Same assay, conditions: Table 33; Yap1 mRNA, percent of untreated control; 3-10-3 cEt gapmers targeting SEQ ID NO.: 1, and 2

Point of comparison: “1074963 (antisense kT*kA*kG*dG*d[5mC]*dA*dA*dG*d[5mC]*dA*dG*d[5mC]*dT*kA*kA*kA) [compound 1074963]”, “YAP1 (% UTC)” value 76 % UTC. Against it:
- 1076499 (kG*k[5mC]*kT*dA*dA*dT*dA*dT*dA*dT*d[5mC]*d[5mC]*dA*kA*kT*kT; antisense) [compound 1076499] — lower, 37 % UTC

Same assay, conditions: Yap1 mRNA as percent of untreated control; A-431 cells; 3-10-3 cEt gapmers targeting SEQ ID NO.: 1, and 2; Table 30

Point of comparison: “1076304 (kA*k[5mC]*kT*dA*dA*dT*dA*dA*dG*d[5mC]*d[5mC]*dT*d[5mC]*kA*k[5mC]*k[5mC]; antisense) [compound 1076304]”, “YAP1 (% UTC)” value 30 % UTC. Against it:
- 1075760 (kG*kA*kG*dA*dA*dA*dA*dA*d[5mC]*dT*dA*d[5mC]*dG*kG*kA*kT; antisense) [compound 1075760] — higher, 39 % UTC
- 1074128 (k[5mC]*kT*k[5mC]*d[5mC]*dA*d[5mC]*dT*dG*dG*dT*d[5mC]*dT*dG*kG*k[5mC]*kG; antisense) [compound 1074128] — higher, 76 % UTC
- 1075440 (antisense kA*kA*kA*dT*dT*dA*dT*dT*dA*dG*dT*dT*dG*kT*k[5mC]*kG) [compound 1075440] — lower, 28 % UTC

Same assay, conditions: Yap1 mRNA as percent of untreated control; A-431 cells; 3-10-3 cEt gapmers targeting SEQ ID NO.: 1, and 2; Table 31

Point of comparison: “1074193 (antisense kG*kG*kT*d[5mC]*d[5mC]*dG*dG*dA*d[5mC]*dG*dG*d[5mC]*dG*kG*kG*k[5mC]) [compound 1074193]”, “YAP1 (% UTC)” value 74 % UTC. Against it:
- 1074641 (antisense kG*kG*k[5mC]*d[5mC]*dA*dA*dA*dA*dT*dA*d[5mC]*dT*dT*kA*kG*kA) [compound 1074641] — higher, 107 % UTC
- 1074161 (kG*kG*k[5mC]*dG*dA*dG*d[5mC]*dG*dA*dG*dG*dG*d[5mC]*kT*kA*k[5mC]; antisense) [compound 1074161] — higher, 98 % UTC

— patent US11214803B2, “Modulators of YAP1 expression” (Ionis Pharmaceuticals, Inc., priority 2019, dated 2022)
